Read-outs that look alike come from different tables or passages of the source.
Experiments:
[1] = system: STS; conditions: cited from earlier work
[2] = biological target: T1, STS (Homo sapiens, UniProt P08842); experiment: Inhibition of STS activity in intact monolayers of JEG-3 cells; assay type: cell-based; conditions: for inhibition at 10 µM: JEG-3, JEG-3 cells
T1 sequence (P08842 22-583): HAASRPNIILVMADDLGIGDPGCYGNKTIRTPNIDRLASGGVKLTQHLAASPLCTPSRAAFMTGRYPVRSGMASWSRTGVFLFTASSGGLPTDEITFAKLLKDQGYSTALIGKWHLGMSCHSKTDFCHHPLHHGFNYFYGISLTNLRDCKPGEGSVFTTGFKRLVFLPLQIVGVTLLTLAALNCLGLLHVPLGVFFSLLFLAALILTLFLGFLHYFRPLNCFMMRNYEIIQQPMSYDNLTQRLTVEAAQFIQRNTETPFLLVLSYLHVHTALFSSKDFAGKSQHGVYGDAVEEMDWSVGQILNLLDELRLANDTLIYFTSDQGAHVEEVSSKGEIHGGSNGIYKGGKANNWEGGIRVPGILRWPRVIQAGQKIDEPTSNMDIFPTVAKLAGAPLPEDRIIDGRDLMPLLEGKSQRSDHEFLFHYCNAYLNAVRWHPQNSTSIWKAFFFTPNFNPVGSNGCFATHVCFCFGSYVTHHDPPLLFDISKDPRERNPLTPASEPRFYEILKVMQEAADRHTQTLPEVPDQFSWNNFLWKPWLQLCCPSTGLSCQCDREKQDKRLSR

[3] = system: rat liver STS; conditions: 24 h after administration, cited from earlier work
[4] = system: liver STS, skin STS; conditions: 1 and 10 mg kg^−1, cited from earlier work
[5] = preparation of placental microsomes
[6] = read-out: PM IC50, placental microsomes

Row | Compound | IC50 [2] [nM] | inhibition at 10 µM ([2]; determined at 10 μM) [%] | IC50 [1, 6] [nM] | further results
1 | COc1cc2c(cc1OS(N)(=O)=O)CC[C@@H]1[C@@H]2CC[C@]2(C)C(=O)CC[C@@H]12 [2-methoxyestrone 3-O-sulfamate, reference compound] | – | – | – | IC50 [1, 5]: 30 nM
2 | NS(=O)(=O)Oc1ccc2c3c(c(=O)oc2c1)CCCCC3 [Compound 1, Irosustat] | – | – | 8 | –
3 | COc1nc2cc(OS(N)(=O)=O)ccc2c2c1CCCCC2 [Compound 19, 6-Methoxy-8,9,10,11-tetrahydro-7H-cyclohepta[c]quinolin-3-yl sulfamate] | – | 68 | – | –
4 | CCCCCn1c(=O)c2c(c3ccc(OS(N)(=O)=O)cc31)CCCCC2 [Compound 20, 6-Oxo-5-pentyl-6,7,8,9,10,11-hexahydro-5H-cyclohepta[c]quinolin-3-yl sulfamate] | – | < 10 | – | –
5 | CCCCCOc1nc2cc(OS(N)(=O)=O)ccc2c2c1CCCCC2 [Compound 21, 6-(Pentyloxy)-8,9,10,11-tetrahydro-7H-cyclohepta[c]quinolin-3-yl sulfamate] | – | < 10 | – | –
6 | NS(=O)(=O)Oc1ccc2c3c(c(=O)n(CCCc4ccccc4)c2c1)CCCCC3 [Compound 22, 6-Oxo-5-(3-phenylpropyl)-6,7,8,9,10,11-hexahydro-5H-cyclohepta[c]quinolin-3-yl sulfamate] | – | 20 | – | –
7 | NS(=O)(=O)Oc1ccc2c3c(c(OCCCc4ccccc4)nc2c1)CCCCC3 [Compound 23, 6-(3-Phenylpropoxy)-8,9,10,11-tetrahydro-7H-cyclohepta[c]quinolin-3-yl sulfamate] | – | < 10 | – | –
8 | NS(=O)(=O)Nc1ccc2c3c(c(=O)[nH]c2c1)CCCCC3 [Compound 24, 6-Oxo-6,7,8,9,10,11-hexahydro-5H-cyclohepta[c]quinolin-3-ylsulfamide] | > 1000 | – | – | –
9 | C[C@]12CC[C@@H]3c4ccc(OS(N)(=O)=O)cc4CC[C@H]3[C@@H]1CCC2=O [EMATE, oestrone 3-O-sulfamate, reference compound] | – | – | – | IC50 [1, 5]: 4 nM

More lines, main results first:

Row | IC50 [2] [nM] | inhibition at 10 µM ([2]; determined at 10 μM) [%] | Compound | IC50 [1, 6] [nM] | further results
10 | 0.022 | – | NS(=O)(=O)Oc1ccc2c3c(c(=O)oc2c1)CCCCCCC3 [Compound 6, 6-Oxo-6,7,8,9,10,11,12,13-octahydrocyclonona[c]chromen-3-yl sulfamate] | 2.4 | –
11 | 0.025 | – | NS(=O)(=O)Oc1ccc2c3c(c(=O)oc2c1)CCCCCCCC3 [Compound 7, 6-Oxo-7,8,9,10,11,12,13,14-octahydro-6H-cyclodeca[c]chromen-3-yl sulfamate] | 1 | –
12 | 100 | – | NS(=O)(=O)Oc1ccc2c3c(c(=O)oc2c1)CCCCCCCCCC3 [Compound 9, 6-Oxo-7,8,9,10,11,12,13,14,15,16-decahydro-6H-cyclododeca[c]chromen-3-yl sulfamate] | 60 | –
13 | 220 | – | NS(=O)(=O)Oc1ccc2c3c(c(=O)oc2c1)CCCCCCCCCCC3 [Compound 10, 6-Oxo-6,7,8,9,10,11,12,13,14,15,16,17-dodecahydrocyclotrideca[c]chromen-3-yl sulfamate] | 75 | –
14 | 1600 | – | NS(=O)(=O)Oc1ccc2c3c(c(=O)oc2c1)CCCCCCCCCCCCC3 [Compound 11, 6-Oxo-6,7,8,9,10,11,12,13,14,15,16,17,18,19-tetradecahydrocyclopentadeca[c]chromen-3-yl sulfamate] | 370 | Inhibition of rat liver STS activity ([3]; 0.1 mg kg^−1): 23%; Inhibition of rat liver STS activity ([3]; 1 mg kg^−1): 94%
15 | > 10000 | – | CN(C)S(=O)(=O)Oc1ccc2c3c(c(=O)oc2c1)CCCCC3 [Compound 12, 6-Oxo-6,7,8,9,10,11-hexahydrocyclohepta[c]chromen-3-yl dimethylsulfamate] | – | JEG-3 IC50 ([2]; JEG-3 cells, Table 1): inactive; Inhibition of skin and liver STS ([4]; applied topically): inhibits skin as well as liver STS effectively; Inhibition of liver STS activity ([4]; nude mice, oral): inhibits liver STS activity potently
16 | 78 ± 13 | – | COc1cc2c3c(c(=O)oc2cc1OS(N)(=O)=O)CCCCC3 [Compound 13, 2-Methoxy-6-oxo-6,7,8,9,10,11-hexahydrocyclohepta[c]chromen-3-yl sulfamate] | – | –
17 | 283 ± 66 | – | NS(=O)(=O)Oc1ccc2oc(=O)c3c(c2c1)CCCCC3 [Compound 14, 6-oxo-6,7,8,9,10,11-hexahydrocyclohepta[c]chromen-2-yl sulfamate] | – | –
18 | 240 ± 40 | 98 | NS(=O)(=O)Oc1ccc2c3c(c(=O)[nH]c2c1)CCCCC3 [Compound 16, 6-Oxo-6,7,8,9,10,11-hexahydro-5H-cyclohepta[c]quinolin-3-yl sulfamate] | – | Fold less potent than 1 ([2]; JEG-3 IC50 versus 1): 160 fold; Inhibition ([2]; JEG-3 cells, determined at 10 μM, 10 µM): 96%
19 | 2400 | – | Cn1c(=O)c2c(c3ccc(OS(N)(=O)=O)cc31)CCCCC2 [Compound 18, 5-Methyl-6-oxo-6,7,8,9,10,11-hexahydro-5H-cyclohepta[c]quinolin-3-yl sulfamate] | – | –

Reference: article PMC3262147 (Chemmedchem, 2011)
